This data set relates to CCRIS mutagenicity, Ames/micronucleus/aberration tests. Description: CCRIS mutagenicity studies.
Setting [1] is: Test System: AMES SALMONELLA TYPHIMURIUM, Strain/Indicator: TA98, Metabolic Activation: RAT, LIVER, S-9, AROCLOR 1254, Method: PREINCUBATION
Setting [2] is: Test System: AMES SALMONELLA TYPHIMURIUM, Strain/Indicator: TA100, Metabolic Activation: RAT, LIVER, S-9, AROCLOR 1254, Method: PREINCUBATION
[3] abbreviates: Test System: AMES SALMONELLA TYPHIMURIUM, Strain/Indicator: TA98, Metabolic Activation: NONE, Method: STANDARD PLATE.
[4] abbreviates: Test System: AMES SALMONELLA TYPHIMURIUM, Strain/Indicator: TA100, Metabolic Activation: NONE, Method: STANDARD PLATE.
[5] abbreviates: Test System: AMES SALMONELLA TYPHIMURIUM, Strain/Indicator: TA1537, Metabolic Activation: NONE, Method: STANDARD PLATE.
Where [6] appears, read: Test System: AMES SALMONELLA TYPHIMURIUM, Strain/Indicator: TA98, Metabolic Activation: NONE, Method: PREINCUBATION
Setting [7] is: Test System: AMES SALMONELLA TYPHIMURIUM, Strain/Indicator: TA98, Metabolic Activation: RAT, LIVER, S-9, AROCLOR 1254, Method: STANDARD PLATE.

The values below come from PubChem BioAssay AID1259407 (Chemical Carcinogenesis Research Information System (CCRIS), 2018).

Active and inactive are the calls of the source. No rule for the calls is given here.

Take `Cc1nc(N)cc2[nH]c3ccccc3c12`: the mutagenic call reads like this: (Test System: AMES SALMONELLA TYPHIMURIUM, Strain/Indicator: TA98, Metabolic Activation: HUMAN, BLOOD, CYTOSOL, Method: PREINCUBATION) “active; positive”; (Test System: AMES SALMONELLA TYPHIMURIUM, Strain/Indicator: TA98, Metabolic Activation: MOUSE, LIVER, HEPATOCYTES) “active; positive”; (Test System: AMES SALMONELLA TYPHIMURIUM, Strain/Indicator: TA98, Metabolic Activation: MOUSE, LIVER, HEPATOCYTES, 2,3,7,8-TETRACHLORODIBENZO-P-DIOXIN) “active; positive”; (Test System: AMES SALMONELLA TYPHIMURIUM, Strain/Indicator: TA98, Metabolic Activation: MOUSE, LIVER, MICROSOMES) “active; positive”; (Test System: AMES SALMONELLA TYPHIMURIUM, Strain/Indicator: TA98, Metabolic Activation: MOUSE, LIVER, MICROSOMES, 2,3,7,8-TETRACHLORODIBENZO-P-DIOXIN) “active; positive”; (Test System: AMES SALMONELLA TYPHIMURIUM, Strain/Indicator: TA98, Metabolic Activation: MOUSE, LIVER, MICROSOMES, TCDD, Method: STANDARD PLATE) “active; positive”. Also, the mutagenic call is “active; positive” (Test System: AMES SALMONELLA TYPHIMURIUM, Strain/Indicator: TA98, Metabolic Activation: MOUSE, LIVER, MICROSOMES, Method: STANDARD PLATE); “active; positive” (Test System: AMES SALMONELLA TYPHIMURIUM, Strain/Indicator: TA98, Metabolic Activation: RAT, BLADDER, S-9, PCB, Method: FLUCTUATION TEST); “active; positive” (Test System: AMES SALMONELLA TYPHIMURIUM, Strain/Indicator: TA98, Metabolic Activation: RAT, HEPATOCYTES, AROCLOR 1254, Method: PREINCUBATION); “active; positive” under setting [1]; “active; positive” (Test System: AMES SALMONELLA TYPHIMURIUM, Strain/Indicator: TA100, Metabolic Activation: RAT, BLADDER, S-9, PCB, Method: FLUCTUATION TEST); “inactive; negative” under setting [2]. The mutagenic call by setting is: (Test System: AMES SALMONELLA TYPHIMURIUM, Strain/Indicator: YG1019, Metabolic Activation: RAT LIVER S-9, AROCLOR, Method: PREINCUBATION) “active; positive”; (Test System: UDS HAMSTER HEPATOCYTES, Strain/Indicator: THY INCORP, Metabolic Activation: NONE, Method: LIQUID SCINTILLATION COUNTING) “inactive; negative”; (Test System: UDS RAT HEPATOCYTES, Strain/Indicator: THY INCORP, Metabolic Activation: NONE, Method: LIQUID SCINTILLATION COUNTING) “inactive; negative”.
Consider `Brc1ccc2c(c1)[C@@H]1O[C@@H]1[C@H]1CCCC[C@H]21`, for which the mutagenic call by setting is: under setting [3], “inactive; negative”; under setting [4], “inactive; negative”.
In the case of `O=C(Nc1ccccc1)Nc1snc2ccccc12`, the mutagenic call is, setting by setting: under setting [4], “inactive; negative”; (Test System: AMES SALMONELLA TYPHIMURIUM, Strain/Indicator: TA100, Metabolic Activation: S-9, Method: STANDARD PLATE) “inactive; negative”; under setting [5], “inactive; negative”; (Test System: AMES SALMONELLA TYPHIMURIUM, Strain/Indicator: TA1537, Metabolic Activation: S-9, Method: STANDARD PLATE) “inactive; negative”.
Take `CCc1cn([C@H]2C[C@H](O)[C@@H](CO)O2)c(=O)[nH]c1=O`: the mutagenic call reads like this: (Test System: AMES SALMONELLA TYPHIMURIUM, Strain/Indicator: TA97, Metabolic Activation: NONE, Method: PREINCUBATION) “inactive; negative”; (Test System: AMES SALMONELLA TYPHIMURIUM, Strain/Indicator: TA97, Metabolic Activation: RAT, LIVER, S-9, AROCLOR 1254, Method: PREINCUBATION) “inactive; negative”; under setting [6], “inactive; negative”; under setting [3], “inactive; negative”; under setting [1], “inactive; negative”; under setting [7], “inactive; negative”. For the same compound, the mutagenic call (Test System: AMES SALMONELLA TYPHIMURIUM, Strain/Indicator: TA100, Metabolic Activation: NONE, Method: PREINCUBATION) was “inactive; negative”; the mutagenic call under setting [4] was “inactive; negative”; the mutagenic call under setting [2] was “inactive; negative”; the mutagenic call (Test System: AMES SALMONELLA TYPHIMURIUM, Strain/Indicator: TA100, Metabolic Activation: RAT, LIVER, S-9, AROCLOR 1254, Method: STANDARD PLATE) was “inactive; negative”; the mutagenic call (Test System: AMES SALMONELLA TYPHIMURIUM, Strain/Indicator: TA102, Metabolic Activation: NONE, Method: PREINCUBATION) is “inactive; negative”; the mutagenic call (Test System: AMES SALMONELLA TYPHIMURIUM, Strain/Indicator: TA102, Metabolic Activation: RAT, LIVER, S-9, AROCLOR 1254, Method: PREINCUBATION) was “inactive; negative”. Besides, the mutagenic call (Test System: AMES SALMONELLA TYPHIMURIUM, Strain/Indicator: TA104, Metabolic Activation: NONE, Method: PREINCUBATION) is “inactive; negative”; the mutagenic call (Test System: AMES SALMONELLA TYPHIMURIUM, Strain/Indicator: TA104, Metabolic Activation: RAT, LIVER, S-9, AROCLOR 1254, Method: PREINCUBATION) was “inactive; negative”; the mutagenic call (Test System: AMES SALMONELLA TYPHIMURIUM, Strain/Indicator: TA1535, Metabolic Activation: NONE, Method: PREINCUBATION) is “inactive; negative”; the mutagenic call (Test System: AMES SALMONELLA TYPHIMURIUM, Strain/Indicator: TA1535, Metabolic Activation: RAT, LIVER, S-9, AROCLOR 1254, Method: PREINCUBATION) was “inactive; negative”; the mutagenic call (Test System: AMES SALMONELLA TYPHIMURIUM, Strain/Indicator: TA1537, Metabolic Activation: NONE, Method: PREINCUBATION) was “inactive; negative”; the mutagenic call under setting [5] was “inactive; negative”. Moreover, the mutagenic call reads like this: (Test System: AMES SALMONELLA TYPHIMURIUM, Strain/Indicator: TA1537, Metabolic Activation: RAT, LIVER, S-9, AROCLOR 1254, Method: PREINCUBATION) “inactive; negative”; (Test System: AMES SALMONELLA TYPHIMURIUM, Strain/Indicator: TA1537, Metabolic Activation: RAT, LIVER, S-9, AROCLOR 1254, Method: STANDARD PLATE) “inactive; negative”; (Test System: AMES SALMONELLA TYPHIMURIUM, Strain/Indicator: TA1538, Metabolic Activation: NONE, Method: PREINCUBATION) “inactive; negative”; (Test System: AMES SALMONELLA TYPHIMURIUM, Strain/Indicator: TA1538, Metabolic Activation: RAT, LIVER, S-9, AROCLOR 1254, Method: PREINCUBATION) “inactive; negative”; (Test System: CHINESE HAMSTER V-79, Strain/Indicator: V-79/8-AZAGUANINE, Metabolic Activation: NONE) “inactive; negative”.
As for `O=[N+]([O-])c1ccc2c3ccccc3c3c([N+](=O)[O-])ccc4ccc1c2c43`, the mutagenic call under setting [3] is “active; positive” and the mutagenic call under setting [7] was “active; positive”.
In the case of `O=[N+]([O-])/C=C/c1ccc([N+](=O)[O-])o1`, the mutagenic call under setting [6] was “active; positive”.
As for `CNC(=O)CNC(=O)C=[N+]=[N-]`, the mutagenic call (Test System: UDS RODENT CELLS, Strain/Indicator: THY INCORP (NON-S-PHASE), Metabolic Activation: NONE, Method: AUTORADIOGRAPHY) was “active; positive”.
